US20130183384A1, “IMMEDIATE RELEASE MULTI UNIT PELLET SYSTEM” (BOEHRINGER INGELHEIM INTERNATIONAL GMBH, priority 2011, published 2013)

Assay: Sensitivity of the drug substance to hydrolysis
Assay type: physicochemical
Conditions: especially at low pH
Description: Any formulation containing both organic acid as well as drug substance in close contact is therefore at a very high risk to decomposition, particularly in the presence of humidity. Therefore e.g. tartaric acid and active ingredient are kept separate in the formulation until the moment of application. A multiparticulate pellet approach is chosen. The drug substance is layered from an isopropanolic suspension onto seal coated spherical tartaric acid starter cores with approximately 0.6-0.8 mm diameter (FIG. 3 Structure of dabigatran etexilate pellets'.

In the case of `CCCCCCOC(=O)N=C(N)c1ccc(NCc2nc3cc(C(=O)N(CCC(=O)OCC)c4ccccn4)ccc3n2C)cc1` [Dabigatran etexilate mesilate, dabigatran etexilate methansulfonate], the sensitivity to hydrolysis is reported as “sensitive to hydrolysis especially at low pH”.
